Source: US20240132431A1, “METHOD FOR ALKYLATING ACIDIC FUNCTIONAL GROUP” (Chugai Seiyaku Kabushiki Kaisha, priority 2021, published 2024)
Values belong to the compound of their own block, whether it stands above or below them.

Biological target: T1, Bcl-2 protein (Recombinant Human Bcl-2 Protein) (Homo sapiens, UniProt P10415)
T1 construct: purchased Novus NBP2-34889
Test: Binding evaluation of mixture library compounds to Bcl-2 using AS-MS (affinity selection mass spectrometry)
Details: for ASMS ratio (%) n = 1: replicate n = 1; for ASMS ratio (%) n = 1 / ASMS ratio (%) n = 2: ASMS Ratio(%)=(A−C)/B×100; for ASMS ratio (%) n = 2: replicate n = 2
In short: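 Affinity selection MS: Bcl-2 20 μM + 1200-cpd mixture, […]/cpd, Tris pH 7.4 buffer w/ Tween-20, DTT; 1 h 23° C dark; P-2 spin SEC; MeCN/MeOH extraction; RP LC/MS. ASMS Ratio(%) = (A−C)/B×100.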

[1] = AS-MS, mixture of 1200 compounds, Bcl-2
[2] = AS-MS on the mixture of 1200 library compounds

T1 sequence (P10415 whole entry): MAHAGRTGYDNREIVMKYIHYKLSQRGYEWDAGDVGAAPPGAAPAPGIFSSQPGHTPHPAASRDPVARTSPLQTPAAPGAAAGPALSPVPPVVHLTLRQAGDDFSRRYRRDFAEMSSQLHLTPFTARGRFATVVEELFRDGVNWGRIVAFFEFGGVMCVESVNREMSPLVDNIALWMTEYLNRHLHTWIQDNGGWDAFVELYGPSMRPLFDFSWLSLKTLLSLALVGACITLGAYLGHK

Compound: CCOc1cccc(-c2cnn(-c3cc(C(=O)N4CCN(c5ccc(C(=O)NS(C)(=O)=O)nn5)CC4)cc(C(F)(F)F)c3)c2)c1 [B2I021-01, 6-[4-[3-[4-(3-Ethoxyphenyl)pyrazol-1-yl]-5-(trifluoromethyl)benzoyl]piperazin-1-yl]-N-methylsulfonylpyridazine-3-carboxamide]
ASMS ratio (%) n = 1 (AS-MS, mixture library, Bcl-2): 0.0%
ASMS ratio (%) n = 2 (AS-MS, mixture library, Bcl-2): 0.0%

Compound: 4-[4-[[3-(3-Ethoxyphenyl)-5-(trifluoromethyl)phenyl]methyl]piperazin-1-yl]-N-propylbenzamide [B1M026-01]
ASMS ratio (%) n = 1 [1]: 0.9%
ASMS ratio (%) n = 2 [1]: 0.9%

Compound: CCOc1cccc(C#Cc2ccccc2C(=O)N2CCN(c3ccc(C(=O)N(CC)CC)nn3)CC2)c1 [B4J007-01, 6-[4-[2-[2-(3-Ethoxyphenyl)ethynyl]benzoyl]piperazin-1-yl]-N,N-diethylpyridazine-3-carboxamide]
ASMS ratio (%) n = 1 [2]: −1.0%
ASMS ratio (%) n = 2 [2]: 1.5%

Compound: 6-[4-[[4-(5-Ethoxypyridin-3-yl)-3-methylphenyl]methyl]piperazin-1-yl]-N-propylpyridazine-3-carboxamide [B1M065-01]
ASMS ratio (%) n = 1 [1]: 0.2%
ASMS ratio (%) n = 2 [1]: −6.4%

Compound: CCOc1cccc(-c2ccccc2CN2CCN(c3ccc(C(=O)Nc4ccc(OC)cc4)nn3)CC2)c1 [B1O071-01, 6-[4-[[2-(3-Ethoxyphenyl)phenyl]methyl]piperazin-1-yl]-N-(4-methoxyphenyl)pyridazine-3-carboxamide]
ASMS ratio (%) n = 1 [2]: 2.9%
ASMS ratio (%) n = 2 [2]: −1.1%

Compound: CCOc1cncc(-c2ccc(CN3CCN(c4ccc(C(=O)NCC56CC7CC(CC(C7)C5)C6)nn4)CC3)c3ccccc23)c1 [B1A092-01, N-(1-Adamantylmethyl)-6-[4-[[4-(5-ethoxypyridin-3-yl)naphthalen-1-yl]methyl]piperazin-1-yl]pyridazine-3-carboxamide]
ASMS ratio (%) n = 1 [1]: 2.6%
ASMS ratio (%) n = 2 [1]: −2.4%

Compound: CCOc1cncc(-c2cnn(-c3cc(C(=O)N4CCN(c5ccc(C(=O)NCC67CC8CC(CC(C8)C6)C7)cc5)CC4)cc(C(F)(F)F)c3)c2)c1 [B1A044-01, N-(1-Adamantylmethyl)-4-[4-[3-[4-(5-ethoxypyridin-3-yl)pyrazol-1-yl]-5-(trifluoromethyl)benzoyl]piperazin-1-yl]benzamide]
ASMS ratio (%) n = 1 [1]: 2.6%
ASMS ratio (%) n = 2 [1]: −1.9%

Compound: CCOc1cccc(-c2ccc(CN3CCN(c4ccc(C(=O)NS(=O)(=O)c5ccc(NCCSc6ccccc6)c([N+](=O)[O-])c5)nn4)CC3)cc2F)c1 [B2Q077-01, 6-[4-[[4-(3-Ethoxyphenyl)-3-fluorophenyl]methyl]piperazin-1-yl]-N-[3-nitro-4-(2-phenylsulfanylethylamino)phenyl]sulfonylpyridazine-3-carboxamide]
ASMS ratio (%) n = 1 (AS-MS, mixture library, Bcl-2): 14.7%
ASMS ratio (%) n = 2 (AS-MS, mixture library, Bcl-2): 17.2%

Compound: CCOc1cccc(-c2csc(C(=O)N3CCN(c4ccc(C(=O)N(C)CC56CC7CC(CC(C7)C5)C6)nn4)CC3)c2)c1 [B3A001-01, N-(1-Adamantylmethyl)-6-[4-[4-(3-ethoxyphenyl)thiophene-2-carbonyl]piperazin-1-yl]-N-methylpyridazine-3-carboxamide]
ASMS ratio (%) n = 1 [2]: 0.0%
ASMS ratio (%) n = 2 [2]: −8.4%

Compound: CCOc1cncc(C#Cc2cc(C(=O)N3CCN(c4ccc(C(=O)NS(=O)(=O)c5ccc(NCCSc6ccccc6)c(C(F)(F)F)c5)cc4)CC3)cc(C(F)(F)F)c2)c1 [B2R042-01, 4-[4-[3-[2-(5-Ethoxypyridin-3-yl)ethynyl]-5-(trifluoromethyl)benzoyl]piperazin-1-yl]-N-[4-(2-phenylsulfanylethylamino)-3-(trifluoromethyl)phenyl]sulfonylbenzamide]
ASMS ratio (%) (n = 1): 3.4%
ASMS ratio (%) (n = 2): 6.0%

Compound: CCOc1cncc(-c2ccc(CN3CCN(c4ccc(C(=O)NS(=O)(=O)c5ccc(NCCSc6ccccc6)c([N+](=O)[O-])c5)nn4)CC3)c(OC)c2)c1 [B2Q080-01, 6-[4-[[4-(5-Ethoxypyridin-3-yl)-2-methoxyphenyl]methyl]piperazin-1-yl]-N-[3-nitro-4-(2-phenylsulfanylethylamino)phenyl]sulfonylpyridazine-3-carboxamide]
ASMS ratio (%) n = 1 (AS-MS, mixture library, Bcl-2): 12.6%
ASMS ratio (%) n = 2 (AS-MS, mixture library, Bcl-2): 3.6%

Compound: CCOc1cncc(-c2csc(C(=O)N3CCN(c4ccc(C(=O)N(C)CC56CC7CC(CC(C7)C5)C6)nn4)CC3)c2)c1 [B3A002-01, N-(1-Adamantylmethyl)-6-[4-[4-(5-ethoxypyridin-3-yl)thiophene-2-carbonyl]piperazin-1-yl]-N-methylpyridazine-3-carboxamide]
ASMS ratio (%) n = 1 [2]: 1.9%
ASMS ratio (%) n = 2 [2]: −1.2%

Compound: CCOc1cncc(C#Cc2cncc(C(=O)N3CCN(c4ccc(C(=O)NS(=O)(=O)CCC(F)(F)F)cc4)CC3)c2)c1 [B2N032-01, 4-[4-[5-[2-(5-Ethoxypyridin-3-yl)ethynyl]pyridine-3-carbonyl]piperazin-1-yl]-N-(3,3,3-trifluoropropylsulfonyl)benzamide]
ASMS ratio (%) (n = 1): −0.4%
ASMS ratio (%) (n = 2): −1.0%

More lines, now with the values ahead:

ASMS ratio (%) (n = 1): 0.0%
ASMS ratio (%) (n = 2): 0.0%
Compound: CCOc1cccc(-c2ccc(CN3CCN(c4ccc(C(=O)NS(C)(=O)=O)cc4)CC3)cc2F)c1 [B2I051-01, 4-[4-[[4-(3-Ethoxyphenyl)-3-fluorophenyl]methyl]piperazin-1-yl]-N-methylsulfonylbenzamide]

ASMS ratio (%) n = 1 (AS-MS, mixture library, Bcl-2): 3.7%
ASMS ratio (%) n = 2 (AS-MS, mixture library, Bcl-2): 1.5%
Compound: CCOc1cccc(-c2ccc(CN3CCN(c4ccc(C(=O)N(CC)CC)nn4)CC3)c3ccccc23)c1 [B4J091-01, 6-[4-[[4-(3-Ethoxyphenyl)naphthalen-1-yl]methyl]piperazin-1-yl]-N,N-diethylpyridazine-3-carboxamide]

ASMS ratio (%) (n = 1): 0.0%
ASMS ratio (%) (n = 2): 0.0%
Compound: CCOc1cccc(-c2ccc(CN3CCN(c4ccc(C(=O)NS(=O)(=O)C(C)(C)C)nn4)CC3)cc2F)c1 [B2L077-01, N-tert-Butylsulfonyl-6-[4-[[4-(3-ethoxyphenyl)-3-fluorophenyl]methyl]piperazin-1-yl]pyridazine-3-carboxamide]

ASMS ratio (%) n = 1 [1]: 1.5%
ASMS ratio (%) n = 2 [1]: −0.1%
Compound: CCOc1cccc(-c2ccccc2CN2CCN(c3ccc(C(=O)NCC(F)(F)F)cc3)CC2)c1 [B1K045-01, 4-[4-[[2-(3-Ethoxyphenyl)phenyl]methyl]piperazin-1-yl]-N-(2,2,2-trifluoroethyl)benzamide]

ASMS ratio (%) (n = 1): 0.8%
ASMS ratio (%) (n = 2): 1.4%
Compound: CCOc1cccc(-c2ccc(CN3CCN(c4ccc(C(=O)NS(C)(=O)=O)cc4)CC3)cc2C)c1 [B2I047-01]

ASMS ratio (%) (n = 1): 0.0%
ASMS ratio (%) (n = 2): 0.0%
Compound: CCOc1cccc(C#Cc2cncc(C(=O)N3CCN(c4ccc(C(=O)NS(=O)(=O)C(C)(C)C)cc4)CC3)c2)c1 [B2L031-01, N-tert-Butylsulfonyl-4-[4-[5-[2-(3-ethoxyphenyl)ethynyl]pyridine-3-carbonyl]piperazin-1-yl]benzamide]

ASMS ratio (%) (n = 1): 0.0%
ASMS ratio (%) (n = 2): 0.0%
Compound: CCOc1cncc(-c2ccc(CN3CCN(c4ccc(C(=O)NS(C)(=O)=O)cc4)CC3)cc2C)c1 [B2I048-01, 4-[4-[[4-(5-Ethoxypyridin-3-yl)-3-methylphenyl]methyl]piperazin-1-yl]-N-methylsulfonylbenzamide]

ASMS ratio (%) n = 1 [2]: 21.3%
ASMS ratio (%) n = 2 [2]: −4.2%
Compound: CCOc1cccc(-c2ccc(CN3CCN(c4ccc(C(=O)N(C)CC56CC7CC(CC(C7)C5)C6)cc4)CC3)cc2F)c1 [B3A051-01, N-(1-Adamantylmethyl)-4-[4-[[4-(3-ethoxyphenyl)-3-fluorophenyl]methyl]piperazin-1-yl]-N-methylbenzamide]
